Assay results published in PubChem BioAssay (NCI).
“And” between values parts separate entries of the source, which are not always exact repeats. Equal values may be shown once.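 1) Cells in 96-well plates. 2) Compound, 48 h, 5 concentrations. 3) Linear interpolation between surrounding doses. 4) Unreached endpoint = highest concentration. Abbreviation: GI50, concentration required for 50% inhibition of growth. TGI: total growth inhibition.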

Key:
Assay in all cases: growth of human tumour cells (NCI), 48 h
HS 578T breast = system: HS 578T breast
HL-60(TB) leukemia = system: HL-60(TB) leukemia
CAKI-1 renal = system: CAKI-1 renal
EKVX NSCLC = system: EKVX NSCLC
RXF 393 renal = system: RXF 393 renal
MDA-MB-435 = system: MDA-MB-435
LOX IMVI melanoma = system: LOX IMVI melanoma
A498 renal = system: A498 renal
NCI-H226 lung = system: NCI-H226 lung
K-562 leukemia = system: K-562 leukemia

Row | Structure (SMILES) | GI50 (HS 578T breast) [µM] | TGI (HS 578T breast) | GI50 (HL-60(TB) leukemia) [µM] | TGI (HL-60(TB) leukemia) | GI50 (CAKI-1 renal) [µM] | TGI (CAKI-1 renal) | GI50 (EKVX NSCLC) [µM] | TGI (EKVX NSCLC) | GI50 (RXF 393 renal) [µM] | TGI (RXF 393 renal) | GI50 (MDA-MB-435) [µM] | TGI (MDA-MB-435) | GI50 (LOX IMVI melanoma) [µM] | GI50 (A498 renal) [µM] | TGI (A498 renal) | GI50 (NCI-H226 lung) [µM] | TGI (NCI-H226 lung) | GI50 (K-562 leukemia) [µM] | TGI (K-562 leukemia) | TGI (LOX IMVI melanoma) [µM]
1 | CN(C)CC/C=C1\c2ccccc2Sc2ccc(Cl)cc21 | 2.99 | 15.1 µM and 37 µM | 4.46 | 13.7 µM and 27.7 µM | 2.56 | 11.4 µM and 21.4 µM | 6.47 | 22.3 µM and 22.8 µM | 1.86 | 5.59 µM and 28.3 µM | 1.77 | 4.03 µM and 23.1 µM | 1.57 | 3.02 | 14.1 µM and 28 µM | 2.45 | 9.11 µM and 38 µM | 2.43 | 4.71 µM and 18.7 µM | 
2 | C#C[C@@]1(O)[C@@H](CO)O[C@@H](n2cc(Cl)c3c(N)ncnc32)[C@@H]1O | 1.07 | > 26.5 µM | 0.0341 | 0.197 µM |  |  | 0.261 | 2.43 µM | 0.299 | 0.813 µM | 0.166 | 2.4 µM | 0.0541 | 0.274 | 0.659 µM | 0.508 |  | 0.0993 | > 100 µM | 0.253
3 | O=C(O)C1C2C=CC(O2)C1C(=O)Nc1ccccc1 (stereo not drawn) |  | > 100 µM |  |  |  | > 100 µM |  | > 100 µM |  | > 100 µM |  | > 100 µM |  |  | > 100 µM |  | > 100 µM |  | > 100 µM | > 100
4 | Cc1cc(Cl)ccc1Nc1sc(C(=O)c2cc3cc(Cl)ccc3o2)c(N)c1C#N |  | > 100 µM |  | > 100 µM |  | > 100 µM |  | > 100 µM |  | > 100 µM |  | > 100 µM |  |  | 19.2 µM |  | > 100 µM |  | > 100 µM | > 100
5 | COc1ccc(C(=O)/C=C/c2cc3ccccc3[nH]c2=O)cc1 | 20.8 | > 100 µM | 21.9 | > 100 µM | 14.9 | 28.2 µM | 22.6 | > 94.3 µM | 19.7 | > 44 µM | 21.2 | > 55.8 µM | 13.7 | > 38.4 | > 100 µM | 22.1 | > 100 µM | > 57.6 | > 100 µM | 25.4
6 | Nc1ccccc1NC(=O)c1ccc(CSc2nc(N3CCOCC3)c3cccn3n2)cc1 | 0.781 | > 100 µM | 0.273 | 0.961 µM |  |  | 1.08 | > 100 µM | 0.464 | 2.51 µM | 0.27 | 1 µM | 0.49 | 1.09 | 5.34 µM | 1.26 | 3.95 µM | 0.312 | > 100 µM | 3.22
7 | N=c1nc(N)c2cc3c(N)nc(=N)c3cc12 |  | > 100 µM |  | 6.78 µM |  | 41.6 µM |  | 75.3 µM |  | 25.3 µM |  | > 100 µM |  |  | > 90.6 µM |  | 44.7 µM |  | 9.57 µM | > 52.2
8 | CCN(Cc1ccc(F)cc1)c1ccc(CO)c(Cl)c1 | 17.8 | > 66.2 µM | 3.63 | 23.3 µM | 0.487 | 8.79 µM | 17.5 | 57.5 µM | 2.81 | 21.2 µM | 19.9 | 73.2 µM | 7.76 | 0.019 | 0.0936 µM | 0.0306 | 0.116 µM | 1.57 | > 100 µM | 20.7
9 | Oc1c(Br)cc(Br)cc1CN(Cc1cc(Br)cc(Br)c1O)C1CCCCC1 |  | 53 µM |  |  |  | > 100 µM |  | 92.5 µM |  | > 100 µM |  | > 100 µM |  |  | 71.1 µM |  | > 100 µM |  | > 100 µM | > 100
10 | CCN1C(=O)N(CC)C2C1NN=c1s/c(=C3\C(=O)N(CCC(C)C)c4ccccc43)c(=O)n12 (stereo not drawn) | 1.08 | 4.87 µM | 2.12 | 4.5 µM | 0.686 | 4.17 µM | 1.34 | > 100 µM | 0.738 | 3.62 µM | 0.308 | 1.14 µM |  | 0.477 | 2.59 µM | 2.52 | 7.69 µM | 0.586 | > 100 µM | 
11 | C=C1C(=O)O[C@@H]2[C@H]1CC[C@H](C)[C@]1(O)CCC(=O)[C@@]21C |  | > 10 µM |  | > 10 µM |  |  |  | > 10 µM |  | > 10 µM |  | > 10 µM |  |  |  |  | > 10 µM |  | > 10 µM | > 10
12 | O=c1oc2ccc(Cl)cc2c(=O)n1-c1ccc(Cl)cc1F | 0.285 | 1.97 µM |  |  | 0.271 | 1.67 µM | 0.688 | 11.3 µM | 0.512 | 1.85 µM | 0.572 | 4.86 µM | 0.424 | 0.161 | 0.498 µM | 0.576 | 3.3 µM | 0.422 | > 100 µM | 2.27
13 | CCCCCCCCCCCCCOC(=O)c1c(C)[nH]c(/C=C2\N=C(c3ccc[nH]3)C=C2OC)c1C | 0.0853 | 5.47 µM | 0.0182 |  | 0.0336 |  |  |  | 0.465 | 10.5 µM | 0.0411 | > 100 µM |  | 0.481 | 10.8 µM | 1.02 | > 57.4 µM | 0.0392 | > 100 µM | 0.0223
14 | CCC1CCc2nc3sc(C(=O)Nc4ccccc4F)c(N)c3cc2C1 (stereo not drawn) | 2.13 | > 100 µM | 0.302 | 0.978 µM | 0.768 | > 100 µM |  |  | 1.18 | > 100 µM | 0.133 | 0.562 µM | 7.66 | 0.0575 | 0.689 µM | > 100 | > 100 µM | 0.402 | > 100 µM | > 100
15 | CC1(C)SC2C(C(=O)O)N=C(Cc3ccccc3)N2C1C(=O)O (stereo not drawn) |  | 95.7 µM |  |  |  | > 100 µM |  | 29.7 µM |  | > 100 µM |  | > 100 µM |  |  | > 100 µM |  | 51.3 µM |  | > 100 µM | 60.5
